Assay results published in patent US3997527A, “Aminomethylarylmethylpenicillin derivatives” (Pfizer Inc., priority 1976, dated 1976).
≈ marks a conversion by molar mass, not a printed value.

Experiments:
Assay type in all cases: cell-based
Past. mult. 59A001 = assay: In vitro antibacterial activity (MIC), Past. mult. 59A001; details: nutrient broth
Excerpt: (§1) As has been previously mentioned, the penicillins of the present invention are broad spectrum antibiotics which are, unlike many penicillin analogs, highly antagonistic toward gram-negative microorganisms, in particular E. coli and Klebsiella. This unusual activity against certain gram-negative organisms may be attributed to the positioning of the aminomethyl substituent adjacent to the linking amide moiety. The marked effectiveness of this positioning can be readily seen in an antibacterial comparison of 6-(o-aminomethylphenylacetamido)penicillanic acid (o-AMP), a preferred compound of the present invention and 6-(p-aminomethylphenylacetamido)penicillanic acid (p-AMP), a compound of the previously-mentioned British Pat. 1,057,029.

Salm. typhm. 530013 = assay: In vitro antibacterial activity (MIC), Salm. typhm. 530013; details: nutrient broth
Excerpt: as §1

Kleb. pneumoniae 53A009 = assay: In vitro antibacterial activity (MIC), Kleb. pneumoniae 53A009; details: Klebsiella pneumoniae, nutrient broth
Excerpt: as §1

S. aureus 01A052 = assay: In vitro antibacterial activity (MIC), S. aureus 01A052; details: Staphylococcus aureus, nutrient broth
Excerpt: as §1

S. pyogenes 020803 = assay: In vitro antibacterial activity (MIC), S. pyogenes 020803; details: Streptococcus pyogenes, nutrient broth
Excerpt: as §1

E. coli 51A002 = assay: In vitro antibacterial activity (MIC), E. coli 51A002; details: Escherichia coli, nutrient broth
Excerpt: as §1

E. coli 51A266 = assay: In vitro antibacterial activity (MIC), E. coli 51A266; details: Escherichia coli, nutrient broth
Excerpt: as §1

Entero. aero. 55A004 = assay: In vitro antibacterial activity (MIC), Entero. aero. 55A004; details: nutrient broth
Excerpt: as §1

S. aureus 01A005 = assay: In vitro antibacterial activity (MIC), S. aureus 01A005; details: Staphylococcus aureus, nutrient broth
Excerpt: as §1

E. coli 51A215 = assay: In vitro antibacterial activity (MIC), E. coli 51A215; details: Escherichia coli, nutrient broth
Excerpt: as §1

MIC (Past. mult. 59A001) [mg/L]	MIC (Salm. typhm. 530013) [mg/L]	MIC (Kleb. pneumoniae 53A009) [mg/L]	MIC (S. aureus 01A052) [mg/L]	MIC (S. pyogenes 020803) [mg/L]	MIC (E. coli 51A002) [mg/L]	MIC (E. coli 51A266) [mg/L]	MIC (Entero. aero. 55A004) [mg/L]	MIC (S. aureus 01A005) [mg/L]	MIC (E. coli 51A215) [mg/L]	Structure (SMILES)
0.2 (≈ 0.55 µM)	3.12 (≈ 8.58 µM)	3.12 (≈ 8.58 µM)	1.56 (≈ 4.29 µM)	< 0.1	200 (≈ 550 µM)	3.12 (≈ 8.58 µM)	1.56 (≈ 4.29 µM)	0.2 (≈ 0.55 µM)	6.25 (≈ 17.2 µM)	CC1(C)S[C@@H]2C(NC(=O)Cc3ccccc3CN)C(=O)N2[C@H]1C(=O)O (some centres unmarked) [o-AMP, 6-(o-aminomethylphenylacetamido)penicillanic acid]
0.39 (≈ 1.07 µM)	12.5 (≈ 34.4 µM)	50 (≈ 138 µM)	200 (≈ 550 µM)	0.39 (≈ 1.07 µM)	> 200	50 (≈ 138 µM)	> 200	200 (≈ 550 µM)	6.25 (≈ 17.2 µM)	CC1(C)S[C@@H]2C(NC(=O)Cc3ccc(CN)cc3)C(=O)N2[C@H]1C(=O)O (some centres unmarked) [p-AMP, 6-(p-aminomethylphenylacetamido)penicillanic acid]
